Results taken from the supplement of paper PMC8671470.

Experiments:
Conditions in all cases: 72 h
MV4-11 [1] = assay: cell viability (% survival relative to DMSO control, bortezomib = 0%); higher = less cytotoxic
Method in brief: (§1)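 Fifteen myeloid leukaemia cell lines were exposed to compounds at 1, 10, 100, 1000 or 10000 nM in 384-well plates for 72 h at 37 °C and 5% CO2. Viability was read by CellTiter-Glo luminescence and normalised, with vehicle as 100% and a 10 µM positive control as 0%. Values are percent survival averaged over duplicates.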

K-562 [2] = assay: as above
Method in brief: as §1

MOLM-13 [3] = assay: as above
Method in brief: as §1

KU-812 [4] = assay: as above
Method in brief: as §1

Mono-Mac-6 [5] = assay: as above
Method in brief: as §1

THP-1 [6] = assay: as above
Method in brief: as §1

BV-173 = tested on: BV-173
Method in brief: (§2)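 Fifteen myeloid leukaemia cell lines were seeded in RPMI 1640 at densities titrated to the linear growth range and placed in 384-well plates with acoustically pre-printed compounds at five tenfold doses from 1 to 10,000 nM, in duplicate. After 72 h at 37 °C with 5% CO2, luminescent ATP viability was normalised to vehicle and to a positive control at 10 µM, and curves were fitted with a four-parameter log-logistic model. The IC50 was obtained from these fits.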

KCL-22 = tested on: KCL-22
Method in brief: as §2

SHI-1 = tested on: SHI-1
Method in brief: as §2

LAMA-84 = tested on: LAMA-84
Method in brief: as §2

HL-60 = tested on: HL-60
Method in brief: as §2

ML-2 = tested on: ML-2
Method in brief: as §2

KG-1 = tested on: KG-1
Method in brief: as §2

NOMO-1 = tested on: NOMO-1
Method in brief: as §2

HEL = tested on: HEL
Method in brief: as §2

MV4-11 [7] = tested on: MV4-11
Method in brief: as §2

K-562 [8] = tested on: K-562
Method in brief: as §2

MOLM-13 [9] = tested on: MOLM-13
Method in brief: as §2

KU-812 [10] = tested on: KU-812
Method in brief: as §2

Mono-Mac-6 [11] = tested on: Mono-Mac-6
Method in brief: as §2

THP-1 [12] = tested on: THP-1
Method in brief: as §2

O=C(c1c2ccccc2cc2ccccc12)N1CCC(N2CCC[C@@H](C(=O)N3CCOCC3)C2)CC1
cell viability [%]
Conditions	K-562 [2]	KU-812 [4]	MOLM-13 [3]	MV4-11 [1]	Mono-Mac-6 [5]	THP-1 [6]
1 nM	112	100	122	133	101	106
10 nM	106	108	103	110	109	96.6
100 nM	119	103	109	97.3	93.4	115
1000 nM	94.9	95.3	62.4	78.8	89.1	94.9
10000 nM	75.7	96	53.7	62.3	75.8	100

Conditions	IC50 (cell viability) [µM]
BV-173	> 10
HEL	> 10
HL-60	1.81
K-562 [8]	> 10
KCL-22	> 10
KG-1	> 10
KU-812 [10]	> 10
LAMA-84	> 10
ML-2	> 10
MOLM-13 [9]	2.77
MV4-11 [7]	8.82
Mono-Mac-6 [11]	> 10
NOMO-1	> 10
SHI-1	> 10
THP-1 [12]	> 10
